Key:
Type in all cases: functional, cell-based
Design in all cases: recommended concentration 100 nM
[1] = target: Centromere-associated protein E (Homo sapiens) (UniProt Q02224); test: Affinity Phenotypic Cellular interaction: (Cell-growth inhibition assays (growth inhibitory effect colon cancer cell line HT-3)) EUB0000734a CENPE; settings: Affinity Phenotypic Cellular Source Knowledge https://pubmed.ncbi.nlm.nih.gov/20167803/
[2] = target: Centromere-associated protein E (Homo sapiens) (UniProt Q02224); test: Affinity Phenotypic Cellular interaction: (Cell-growth inhibition assays (growth inhibitory effect colon cancer cell line K-562)) EUB0000734a CENPE; settings: K562, Affinity Phenotypic Cellular Source Knowledge https://pubmed.ncbi.nlm.nih.gov/20167803/
[3] = target: Centromere-associated protein E (Homo sapiens) (UniProt Q02224); test: Affinity Phenotypic Cellular interaction: (Cell-growth inhibition assays (growth inhibitory effect colon cancer cell line RL)) EUB0000734a CENPE; settings: Affinity Phenotypic Cellular Source Knowledge https://pubmed.ncbi.nlm.nih.gov/20167803/
[4] = target: Centromere-associated protein E (Homo sapiens) (UniProt Q02224); test: Affinity Phenotypic Cellular interaction: (Cell-growth inhibition assays (growth inhibitory effect colon cancer cell line BC-3)) EUB0000734a CENPE; settings: Affinity Phenotypic Cellular Source Knowledge https://pubmed.ncbi.nlm.nih.gov/20167803/
[5] = target: Centromere-associated protein E (Homo sapiens) (UniProt Q02224); test: Affinity Phenotypic Cellular interaction: (Cell-growth inhibition assays (growth inhibitory effect colon cancer cell line WiDr)) EUB0000734a CENPE; settings: Affinity Phenotypic Cellular Source Knowledge https://pubmed.ncbi.nlm.nih.gov/20167803/
[6] = target: Centromere-associated protein E (Homo sapiens) (UniProt Q02224); test: Affinity Phenotypic Cellular interaction: (Cell-growth inhibition assays (growth inhibitory effect colon cancer cell line TK-10)) EUB0000734a CENPE; settings: Affinity Phenotypic Cellular Source Knowledge https://pubmed.ncbi.nlm.nih.gov/20167803/
[7] = target: Centromere-associated protein E (Homo sapiens) (UniProt Q02224); test: Affinity Phenotypic Cellular interaction: (Cell-growth inhibition assays (growth inhibitory effect colon cancer cell line OVCAR-3)) EUB0000734a CENPE; settings: Affinity Phenotypic Cellular Source Knowledge https://pubmed.ncbi.nlm.nih.gov/20167803/
[8] = target: Centromere-associated protein E (Homo sapiens) (UniProt Q02224); test: Affinity Phenotypic Cellular interaction: (Cell-growth inhibition assays (growth inhibitory effect colon cancer cell line CML-T1)) EUB0000734a CENPE; settings: Affinity Phenotypic Cellular Source Knowledge https://pubmed.ncbi.nlm.nih.gov/20167803/
[9] = target: Centromere-associated protein E (Homo sapiens) (UniProt Q02224); test: Affinity Phenotypic Cellular interaction: (Cell-growth inhibition assays (growth inhibitory effect colon cancer cell line SCC-25)) EUB0000734a CENPE; settings: Affinity Phenotypic Cellular Source Knowledge https://pubmed.ncbi.nlm.nih.gov/20167803/
[10] = target: Centromere-associated protein E (Homo sapiens) (UniProt Q02224); test: Affinity Phenotypic Cellular interaction: (Cell-growth inhibition assays (growth inhibitory effect colon cancer cell line NCI/ADR-RES)) EUB0000734a CENPE; settings: Affinity Phenotypic Cellular Source Knowledge https://pubmed.ncbi.nlm.nih.gov/20167803/
[11] = target: Centromere-associated protein E (Homo sapiens) (UniProt Q02224); test: Affinity Phenotypic Cellular interaction: (Cell-growth inhibition assays (growth inhibitory effect colon cancer cell line MV-4-11)) EUB0000734a CENPE; settings: MV4-11, Affinity Phenotypic Cellular Source Knowledge https://pubmed.ncbi.nlm.nih.gov/20167803/
[12] = target: Centromere-associated protein E (Homo sapiens) (UniProt Q02224); test: Affinity Phenotypic Cellular interaction: (Cell-growth inhibition assays (growth inhibitory effect colon cancer cell line HEC-1-B)) EUB0000734a CENPE; settings: Affinity Phenotypic Cellular Source Knowledge https://pubmed.ncbi.nlm.nih.gov/20167803/
[13] = target: Centromere-associated protein E (Homo sapiens) (UniProt Q02224); test: Affinity Phenotypic Cellular interaction: (Cell-growth inhibition assays (growth inhibitory effect colon cancer cell line HOS)) EUB0000734a CENPE; settings: Affinity Phenotypic Cellular Source Knowledge https://pubmed.ncbi.nlm.nih.gov/20167803/
[14] = target: Centromere-associated protein E (Homo sapiens) (UniProt Q02224); test: Affinity Phenotypic Cellular interaction: (Cell-growth inhibition assays (growth inhibitory effect colon cancer cell line EKVX)) EUB0000734a CENPE; settings: Affinity Phenotypic Cellular Source Knowledge https://pubmed.ncbi.nlm.nih.gov/20167803/
[15] = target: Centromere-associated protein E (Homo sapiens) (UniProt Q02224); test: Affinity Phenotypic Cellular interaction: (Cell-growth inhibition assays (growth inhibitory effect colon cancer cell line ES-2)) EUB0000734a CENPE; settings: Affinity Phenotypic Cellular Source Knowledge https://pubmed.ncbi.nlm.nih.gov/20167803/
[16] = target: Centromere-associated protein E (Homo sapiens) (UniProt Q02224); test: Affinity Phenotypic Cellular interaction: (Cell-growth inhibition assays (growth inhibitory effect colon cancer cell line SHP-77)) EUB0000734a CENPE; settings: SHP77, Affinity Phenotypic Cellular Source Knowledge https://pubmed.ncbi.nlm.nih.gov/20167803/
[17] = target: Centromere-associated protein E (Homo sapiens) (UniProt Q02224); test: Affinity Phenotypic Cellular interaction: (Cell-growth inhibition assays (growth inhibitory effect colon cancer cell line RD)) EUB0000734a CENPE; settings: Affinity Phenotypic Cellular Source Knowledge https://pubmed.ncbi.nlm.nih.gov/20167803/
[18] = target: Centromere-associated protein E (Homo sapiens) (UniProt Q02224); test: Affinity Phenotypic Cellular interaction: (Cell-growth inhibition assays (growth inhibitory effect colon cancer cell line SW480)) EUB0000734a CENPE; settings: Affinity Phenotypic Cellular Source Knowledge https://pubmed.ncbi.nlm.nih.gov/20167803/
[19] = target: Centromere-associated protein E (Homo sapiens) (UniProt Q02224); test: Affinity Phenotypic Cellular interaction: (Cell-growth inhibition assays (growth inhibitory effect colon cancer cell line SW48)) EUB0000734a CENPE; settings: Affinity Phenotypic Cellular Source Knowledge https://pubmed.ncbi.nlm.nih.gov/20167803/
[20] = target: Centromere-associated protein E (Homo sapiens) (UniProt Q02224); test: Affinity Phenotypic Cellular interaction: (Cell-growth inhibition assays (growth inhibitory effect lung cancer cell line MV522)) EUB0000734a CENPE; settings: MV-522, Affinity Phenotypic Cellular Source Knowledge https://pubmed.ncbi.nlm.nih.gov/20167803/
[21] = target: Centromere-associated protein E (Homo sapiens) (UniProt Q02224); test: Affinity Phenotypic Cellular interaction: (Cell-growth inhibition assays (growth inhibitory effect colon cancer cell line CRO-AP2)) EUB0000734a CENPE; settings: Affinity Phenotypic Cellular Source Knowledge https://pubmed.ncbi.nlm.nih.gov/20167803/
[22] = target: Centromere-associated protein E (Homo sapiens) (UniProt Q02224); test: Affinity Phenotypic Cellular interaction: (Cell-growth inhibition assays (growth inhibitory effect colon cancer cell line SW756)) EUB0000734a CENPE; settings: Affinity Phenotypic Cellular Source Knowledge https://pubmed.ncbi.nlm.nih.gov/20167803/
[23] = target: Centromere-associated protein E (Homo sapiens) (UniProt Q02224); test: Affinity Phenotypic Cellular interaction: (Cell-growth inhibition assays (growth inhibitory effect colon cancer cell line HOP-62)) EUB0000734a CENPE; settings: Affinity Phenotypic Cellular Source Knowledge https://pubmed.ncbi.nlm.nih.gov/20167803/
[24] = target: Centromere-associated protein E (Homo sapiens) (UniProt Q02224); test: Affinity Phenotypic Cellular interaction: (Cell-growth inhibition assays (growth inhibitory effect colon cancer cell line SW1463)) EUB0000734a CENPE; settings: Affinity Phenotypic Cellular Source Knowledge https://pubmed.ncbi.nlm.nih.gov/20167803/
[25] = target: Centromere-associated protein E (Homo sapiens) (UniProt Q02224); test: Affinity Phenotypic Cellular interaction: (Cell-growth inhibition assays (growth inhibitory effect colon cancer cell line A673)) EUB0000734a CENPE; settings: Affinity Phenotypic Cellular Source Knowledge https://pubmed.ncbi.nlm.nih.gov/20167803/
[26] = target: Centromere-associated protein E (Homo sapiens) (UniProt Q02224); test: Affinity Phenotypic Cellular interaction: (Cell-growth inhibition assays (growth inhibitory effect colon cancer cell line C-4I)) EUB0000734a CENPE; settings: Affinity Phenotypic Cellular Source Knowledge https://pubmed.ncbi.nlm.nih.gov/20167803/
[27] = target: Centromere-associated protein E (Homo sapiens) (UniProt Q02224); test: Affinity Phenotypic Cellular interaction: (Cell-growth inhibition assays (growth inhibitory effect colon cancer cell line PC-3)) EUB0000734a CENPE; settings: Affinity Phenotypic Cellular Source Knowledge https://pubmed.ncbi.nlm.nih.gov/20167803/
[28] = target: Centromere-associated protein E (Homo sapiens) (UniProt Q02224); test: Affinity Phenotypic Cellular interaction: (Cell-growth inhibition assays (growth inhibitory effect colon cancer cell line RPMI6666)) EUB0000734a CENPE; settings: RPMI-6666, Affinity Phenotypic Cellular Source Knowledge https://pubmed.ncbi.nlm.nih.gov/20167803/
[29] = target: Centromere-associated protein E (Homo sapiens) (UniProt Q02224); test: Affinity Phenotypic Cellular interaction: (Cell-growth inhibition assays (growth inhibitory effect colon cancer cell line T-47D)) EUB0000734a CENPE; settings: T47D, Affinity Phenotypic Cellular Source Knowledge https://pubmed.ncbi.nlm.nih.gov/20167803/
[30] = target: Centromere-associated protein E (Homo sapiens) (UniProt Q02224); test: Affinity Phenotypic Cellular interaction: (Cell-growth inhibition assays (growth inhibitory effect colon cancer cell line SF-295)) EUB0000734a CENPE; settings: Affinity Phenotypic Cellular Source Knowledge https://pubmed.ncbi.nlm.nih.gov/20167803/
[31] = target: Centromere-associated protein E (Homo sapiens) (UniProt Q02224); test: Affinity Phenotypic Cellular interaction: (Cell-growth inhibition assays (growth inhibitory effect colon cancer cell line SNB-75)) EUB0000734a CENPE; settings: Affinity Phenotypic Cellular Source Knowledge https://pubmed.ncbi.nlm.nih.gov/20167803/
[32] = target: Centromere-associated protein E (Homo sapiens) (UniProt Q02224); test: Affinity Phenotypic Cellular interaction: (Cell-growth inhibition assays (growth inhibitory effect colon cancer cell line T24)) EUB0000734a CENPE; settings: T-24, Affinity Phenotypic Cellular Source Knowledge https://pubmed.ncbi.nlm.nih.gov/20167803/
[33] = target: Centromere-associated protein E (Homo sapiens) (UniProt Q02224); test: Affinity Phenotypic Cellular interaction: (Cell-growth inhibition assays (growth inhibitory effect colon cancer cell line CHP-212)) EUB0000734a CENPE; settings: Affinity Phenotypic Cellular Source Knowledge https://pubmed.ncbi.nlm.nih.gov/20167803/
[34] = target: Centromere-associated protein E (Homo sapiens) (UniProt Q02224); test: Affinity Phenotypic Cellular interaction: (Cell-growth inhibition assays (growth inhibitory effect colon cancer cell line Raji)) EUB0000734a CENPE; settings: Affinity Phenotypic Cellular Source Knowledge https://pubmed.ncbi.nlm.nih.gov/20167803/
[35] = target: Centromere-associated protein E (Homo sapiens) (UniProt Q02224); test: Affinity Phenotypic Cellular interaction: (Cell-growth inhibition assays (growth inhibitory effect colon cancer cell line SNU-449)) EUB0000734a CENPE; settings: Affinity Phenotypic Cellular Source Knowledge https://pubmed.ncbi.nlm.nih.gov/20167803/
[36] = target: Centromere-associated protein E (Homo sapiens) (UniProt Q02224); test: Affinity Phenotypic Cellular interaction: (Cell-growth inhibition assays (growth inhibitory effect colon cancer cell line DoTc2-4510)) EUB0000734a CENPE; settings: Affinity Phenotypic Cellular Source Knowledge https://pubmed.ncbi.nlm.nih.gov/20167803/
[37] = target: Centromere-associated protein E (Homo sapiens) (UniProt Q02224); test: Affinity Phenotypic Cellular interaction: (Cell-growth inhibition assays (growth inhibitory effect colon cancer cell line BT-20)) EUB0000734a CENPE; settings: Affinity Phenotypic Cellular Source Knowledge https://pubmed.ncbi.nlm.nih.gov/20167803/
[38] = target: Centromere-associated protein E (Homo sapiens) (UniProt Q02224); test: Affinity Phenotypic Cellular interaction: (Cell-growth inhibition assays (growth inhibitory effect colon cancer cell line CAL-54)) EUB0000734a CENPE; settings: Affinity Phenotypic Cellular Source Knowledge https://pubmed.ncbi.nlm.nih.gov/20167803/

Centromere-associated protein E (Homo sapiens), sequence (Q02224 whole entry): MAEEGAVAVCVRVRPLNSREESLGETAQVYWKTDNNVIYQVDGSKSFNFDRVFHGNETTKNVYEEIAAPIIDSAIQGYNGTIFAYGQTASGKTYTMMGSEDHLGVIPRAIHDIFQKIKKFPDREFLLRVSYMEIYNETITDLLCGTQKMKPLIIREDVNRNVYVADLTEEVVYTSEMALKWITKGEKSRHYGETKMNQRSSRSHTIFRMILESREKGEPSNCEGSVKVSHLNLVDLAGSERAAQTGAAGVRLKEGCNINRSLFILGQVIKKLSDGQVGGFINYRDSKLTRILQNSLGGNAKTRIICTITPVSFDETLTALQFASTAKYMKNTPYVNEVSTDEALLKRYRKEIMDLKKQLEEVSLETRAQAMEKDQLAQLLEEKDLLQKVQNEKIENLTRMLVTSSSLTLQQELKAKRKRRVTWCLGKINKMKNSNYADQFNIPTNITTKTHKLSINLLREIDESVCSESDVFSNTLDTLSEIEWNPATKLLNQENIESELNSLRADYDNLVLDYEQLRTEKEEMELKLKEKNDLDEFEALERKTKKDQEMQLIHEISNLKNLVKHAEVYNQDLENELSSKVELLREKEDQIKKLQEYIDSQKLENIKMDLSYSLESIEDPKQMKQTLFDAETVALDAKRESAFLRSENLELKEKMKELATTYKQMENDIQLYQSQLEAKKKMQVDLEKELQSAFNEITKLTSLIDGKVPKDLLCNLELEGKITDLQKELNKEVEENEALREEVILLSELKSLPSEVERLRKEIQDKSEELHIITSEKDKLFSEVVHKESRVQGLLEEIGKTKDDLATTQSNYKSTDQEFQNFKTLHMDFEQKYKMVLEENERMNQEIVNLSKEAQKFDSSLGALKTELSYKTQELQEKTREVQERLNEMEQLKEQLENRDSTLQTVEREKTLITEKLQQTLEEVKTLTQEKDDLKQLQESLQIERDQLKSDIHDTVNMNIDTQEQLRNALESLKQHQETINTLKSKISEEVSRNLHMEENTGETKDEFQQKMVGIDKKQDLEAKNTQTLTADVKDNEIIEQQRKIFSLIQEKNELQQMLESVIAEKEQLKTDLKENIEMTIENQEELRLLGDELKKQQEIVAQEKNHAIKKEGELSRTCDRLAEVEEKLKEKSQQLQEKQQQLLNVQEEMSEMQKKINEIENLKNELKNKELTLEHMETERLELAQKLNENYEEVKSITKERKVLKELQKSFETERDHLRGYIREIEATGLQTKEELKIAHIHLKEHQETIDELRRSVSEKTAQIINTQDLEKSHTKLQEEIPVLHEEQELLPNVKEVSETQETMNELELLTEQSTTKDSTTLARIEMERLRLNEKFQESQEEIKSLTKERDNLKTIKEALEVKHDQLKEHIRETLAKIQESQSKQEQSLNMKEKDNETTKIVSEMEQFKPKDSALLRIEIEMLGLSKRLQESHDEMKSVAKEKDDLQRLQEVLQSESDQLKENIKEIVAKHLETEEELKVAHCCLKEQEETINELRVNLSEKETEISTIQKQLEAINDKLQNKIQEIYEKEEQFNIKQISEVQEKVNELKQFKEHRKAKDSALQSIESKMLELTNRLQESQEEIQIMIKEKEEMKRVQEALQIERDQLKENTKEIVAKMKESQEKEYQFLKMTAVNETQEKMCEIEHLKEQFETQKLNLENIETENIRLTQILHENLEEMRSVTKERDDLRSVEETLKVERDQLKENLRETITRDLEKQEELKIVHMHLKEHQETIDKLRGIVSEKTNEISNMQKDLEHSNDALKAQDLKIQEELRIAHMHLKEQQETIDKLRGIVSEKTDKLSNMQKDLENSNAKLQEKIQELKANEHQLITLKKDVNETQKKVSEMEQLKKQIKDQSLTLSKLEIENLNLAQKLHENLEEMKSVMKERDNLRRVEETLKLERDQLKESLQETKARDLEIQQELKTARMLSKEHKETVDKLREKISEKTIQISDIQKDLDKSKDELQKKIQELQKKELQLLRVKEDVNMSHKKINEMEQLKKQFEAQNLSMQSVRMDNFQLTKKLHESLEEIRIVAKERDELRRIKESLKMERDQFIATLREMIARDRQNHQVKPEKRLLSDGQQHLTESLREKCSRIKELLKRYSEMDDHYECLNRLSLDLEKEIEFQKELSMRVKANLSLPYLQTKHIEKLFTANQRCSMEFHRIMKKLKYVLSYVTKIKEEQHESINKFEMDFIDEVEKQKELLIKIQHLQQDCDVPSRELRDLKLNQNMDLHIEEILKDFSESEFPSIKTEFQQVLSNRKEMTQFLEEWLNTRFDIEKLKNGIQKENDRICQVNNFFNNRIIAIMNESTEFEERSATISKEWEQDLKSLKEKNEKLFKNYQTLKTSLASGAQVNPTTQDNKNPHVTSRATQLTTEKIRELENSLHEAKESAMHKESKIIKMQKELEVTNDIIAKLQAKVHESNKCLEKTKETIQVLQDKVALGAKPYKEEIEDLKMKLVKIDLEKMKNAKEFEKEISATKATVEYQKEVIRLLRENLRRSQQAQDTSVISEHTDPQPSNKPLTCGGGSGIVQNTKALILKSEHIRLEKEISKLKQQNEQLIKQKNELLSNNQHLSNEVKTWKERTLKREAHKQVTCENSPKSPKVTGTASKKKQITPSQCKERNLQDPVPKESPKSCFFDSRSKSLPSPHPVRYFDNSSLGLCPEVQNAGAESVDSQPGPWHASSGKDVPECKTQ

GIC50 [1]: 10 µM
GIC50 [2]: 25 nM
GIC50 [3]: 37 nM
GIC50 [4]: 88 nM
GIC50 [5]: 18 nM
GIC50 [6]: 49 nM
GIC50 [7]: 42 nM
GIC50 [8]: 13 nM
GIC50 [9]: 23 nM
GIC50 [10]: 3.96 µM
GIC50 [11]: 29 nM
GIC50 [12]: 28 nM
GIC50 [13]: 27 nM
GIC50 [14]: 28 nM
GIC50 [15]: 30 nM
GIC50 [16]: 86 nM
GIC50 [17]: 28 nM
GIC50 [18]: 33 nM
GIC50 [19]: 25 nM
GIC50 [20]: 48 nM
GIC50 [21]: 51 nM
GIC50 [22]: 35 nM
GIC50 [23]: 20 nM
GIC50 [24]: 31 nM
GIC50 [25]: 23 nM
GIC50 [26]: 42 nM
GIC50 [27]: 28 nM
GIC50 [28]: 88 nM
GIC50 [29]: 29 nM
GIC50 [30]: 35 nM
GIC50 [31]: 26 nM
GIC50 [32]: 45 nM
GIC50 [33]: 34 nM
GIC50 [34]: 41 nM
GIC50 [35]: 236 nM
GIC50 [36]: 33 nM
GIC50 [37]: 32 nM
GIC50 [38]: 49 nM
Compound: CC(C)Oc1ccc(C(=O)N[C@H](CNC(=O)CN(C)C)Cc2ccc(-c3cn4cccc([C@H](C)O)c4n3)cc2)cc1Cl
